Values after ≈ are worked out from the molar mass of the structure shown. Values joined by “and” are separate entries in the source; they are usually repeats but may differ in a detail not shown here. Identical values can stand only once. Like-named read-outs stand apart in the source and are kept apart here. Ends that are not written are not given here.
Key:
[1] = system: C. difficile; experiment: microbe, parasite or virus in culture; type: cell-based, Clostridium difficile
Method: MIC testing for C. difficile was performed by Eurofins Panlabs Taiwan LTD based on modifications from the CLSI M11-A8 broth dilution method for Bacteroides fragilis susceptibility testing. Briefly, Reinforced Clostridial Medium (RCM) was pre-reduced by over-night incubation in an anaerobic chamber (80% N2, 10% CO2, and 10% H2) prior to use. MU1140 and variants were dissolved in 100% DMSO, diluted by 2-fold serial dilution in 100% DMSO, for a total of 11 concentrations. A 4 μL aliquot of each dilution was added to 96 μL RCM in wells of a 96 well plate using a Biomek FX instrument (Beckman Coulter, USA), followed by the addition of C. difficile suspension, in RCM, 100 μL/well. The final bacterial count was 2 x 10^5 to 1 x 10^6 colony forming units/mL, in 200 μL per assay well. […] Assay plates were incubated at 35°C for 46 to 48 hr in the anaerobic chamber (A35 Anaerobic Workstation, Don Whitley, UK). Following incubation, test plates were visually examined and each well was scored for growth then the MIC was recorded as the lowest concentration that results in complete inhibition of growth. Each test substance was evaluated in duplicate. Vehicle-control and vancomycin were used as blank and positive controls, respectively. The MIC values of the vancomycin controls were consistent with the historical data against test strains (data not shown).

[2] = 5% D-mannitol
Method: (§1) To that end, approximately 10 mg of each compound was weighed on a high-precision balance and dispensed into a 1.5 mL microfuge tube.

[3] = Solubility 5% D-mannitol, 5% D-mannitol in water, visual assessment
Method: as §1

[4] = 1.0 mg/mL in water
Method: Five aliquots of each compound were prepared by dissolving them to 1.0 mg/mL in HPLC grade water (Fisher Scientific, USA). A total of 2 aliquots of the solution were placed in a 37°C stability chamber, and 2 aliquots were placed in a 50°C chamber. Samples were collected on days 0, 2 and 7, centrifuged at 12,000 x g for 5 min, and the supernatants were transferred to a fresh tube. Each sample was diluted 1:4 with 0.05% trifluoroacetic acid (TFA) and the purity and quantity were analyzed by HPLC as described above.

[5] = FaSSIF with trypsin/chymotrypsin
Method: FaSSIF was supplemented with 2% pancreatin (w/v), 6 μg/mL of trypsin and 6 μg/mL of α-chymotrypsin and was prepared as previously reported [22]. All proteases were from Fisher ScientificSamples were collected at the same frequency as in the FaSSGF study, and analyzed using the same method.

[6] = system: C. difficile UNT103-1; experiment: Golden Syrian hamster model of CDAD, oral gavage efficacy; type: in vivo
Method: In vivo efficacy was performed as previously described in detail, except that the compounds were administered via oral gavage (rather than the illeal cannulation method used previously). This study was carried out in accordance with protocols 2016–0015 approved by the Institutional Animal Care and Use Committee (IACUC) at the University of North Texas Health Science Center (UNTHSC). IACUC established guidelines ensuring that approved protocols are in compliance with federal and state laws regarding animal care and use activity at UNTHSC. The UNTHSC animal program in USDA registered (74-R0081) and fully AAALAC accredited.
Briefly, 7–8 weeks old Male Golden Syrian hamsters were used in this study, and weighted 100–120 g (Charles River Laboratories, Wilmington, MA). C. difficile UNT103-1 (VA11, non epidemic (cdtB-, REA group J) was received from Curtis Donskey, Cleveland VA Hospital, Cleveland, OH) and cultured as previously described. The isolate has been previously utilized for the hamster model by the University of North Texas Health Sciences Center (UNTHSC). The infection inoculum was tested to determine the ratio of spores to vegetative cells. In accordance with the details in Table 2, a total of 60 animals were used in this study. Animals were randomized into the 10 study groups (N = 6 per group) prior to treatment. On Day 0, animals were infected with 5.63 x 10^7 total CFU of which 2.81 x 10^4 represented inoculated spores. On Day 1, at 24 hrs post-infection, all animals received a single subcutaneous injection of clindamycin (10 mg/kg). Test articles in 5% mannitol were then administered orally 3x per day (TID), starting on Day 2 at 18 hours after clindamycin injection, for 5 consecutive days (Days 2 through 6). USP-grade vancomycin (positive control) was prepared in water for injection (WFI) at 50 mg/mL and stored refrigerated during the course of the study. […] Data was analyzed using GraphPad Prism 6.0d. […]

[7] = design: method as in earlier work; settings: cited from earlier work
[8] = system: C. difficile; design: method as in PMID 20974818; settings: cited from earlier work
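For Forced degradation Δ Conc in this document: purity and concentration determined by HPLC on aqueous solutions kept in a stability chamber, with samples analyzed at day 0 and after incubation.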
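For Forced degradation Δ Purity in this document: purity and concentration determined by HPLC on aqueous solutions kept in a stability chamber, with samples analyzed at day 0 and after incubation.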

| Molecule | MIC 50 [1] | MIC 90 [1] | MIC Mode [1] | MIC Range [1] | Minimum Inhibitory Concentration C. difficile 103-1 [1] | Minimum Inhibitory Concentration C. difficile 107-1 [1] | Minimum Inhibitory Concentration C. difficile ATCC 9689 [1] | Minimum Inhibitory Concentration C. difficile ATCC 43597 [1] | Minimum Inhibitory Concentration C. difficile ATCC BAA-1805 [1] | Minimum Inhibitory Concentration C. difficile ATCC BAA-1808 [1] | Minimum Inhibitory Concentration C. difficile ATCC BAA-1874 [1] | Minimum Inhibitory Concentration C. difficile ATCC BAA-1875 [1] | solubility [3] | Forced degradation Δ Conc ([4]; 2 Days at 37°C) | Forced degradation Δ Purity ([4]; 2 Days at 37°C) | Forced degradation Δ Conc ([4]; 2 Days at +50°C) | Forced degradation Δ Purity ([4]; 2 Days at +50°C) | Forced degradation Δ Conc ([4]; 7 Days at 37°C) | Forced degradation Δ Purity ([4]; 7 Days at 37°C) | Forced degradation Δ Conc ([4]; 7 Days at +50°C) | further results |
| --- | --- | --- | --- | --- | --- | --- | --- | --- | --- | --- | --- | --- | --- | --- | --- | --- | --- | --- | --- | --- | --- |
| C=C1NC(=O)[C@H](Cc2c[nH]c3ccccc23)NC(=O)[C@H](NC(=O)[C@H](CCCCN)NC(=O)[C@@H](N)[C@@H](C)CC)CSC[C@@H](C(=O)N[C@H]2C(=O)N3CCC[C@H]3C(=O)NCC(=O)N[C@H](C(=O)N[C@@H](C)C(=O)N[C@@H](CC(=O)O)C(=O)N/C(=C\C)C(=O)NCC(=O)N[C@@H]3CSC[C@@H]4NC(=O)[C@H](Cc5ccc(O)cc5)NC(=O)[C@@H](CS/C=C\NC4=O)NC(=O)[C@H](CC(N)=O)NC(=O)[C@H](Cc4ccccc4)NC3=O)CS[C@H]2C)NC(=O)[C@H](CC(C)C)NC1=O [OG703] | 1 µg/mL (≈ 0.457 µM) | 2 µg/mL (≈ 0.913 µM) | 1 µg/mL (≈ 0.457 µM) | 0.5 to 2 µg/mL | 0.5 µg/mL | 2 µg/mL | 2 µg/mL | 1 µg/mL | 1 µg/mL | 1 µg/mL | 0.5 µg/mL | 1 µg/mL | 7000 µg/mL (≈ 3200 µM) | -9.2% and -9% | -0.97% | -15% | -1.74% | -13.4% and -13% | -1.04% | -30.3% and -30% | solubility reduced relative to OG706 [2]: 2-3 fold; Forced degradation Δ Purity ([4]; 7 Days at +50°C): -4.79% |
| C=C1NC(=O)[C@H](Cc2c[nH]c3ccccc23)NC(=O)[C@H](NC(=O)[C@H](CCCCN)NC(=O)[C@@H](N)[C@@H](C)CC)CSC[C@@H](C(=O)N[C@H]2C(=O)N3CCC[C@H]3C(=O)NCC(=O)N[C@H](C(=O)N[C@@H](C)C(=O)N[C@@H](C)C(=O)N/C(=C\C)C(=O)NCC(=O)N[C@@H]3CSC[C@@H]4NC(=O)[C@H](Cc5ccc(O)cc5)NC(=O)[C@@H](CS/C=C\NC4=O)NC(=O)[C@H](CC(N)=O)NC(=O)[C@H](Cc4ccccc4)NC3=O)CS[C@H]2C)NC(=O)[C@H](CC(C)C)NC1=O [OG711] | 0.5 µg/mL (≈ 0.233 µM) | 1 µg/mL (≈ 0.466 µM) | 0.25 µg/mL (≈ 0.117 µM) | 0.25 to 1 µg/mL | 0.25 µg/mL | 1 µg/mL | 1 µg/mL | 0.5 µg/mL | 0.25 µg/mL | 0.25 µg/mL | 0.5 µg/mL | 0.5 µg/mL | 12000 to 18000 µg/mL (≈ 5590 to 8390 µM) | -12.5% and -13% | -1.24% | -8.7% and -9% | -0.61% | -10.8% and -11% | -0.63% | -40.1% and -40% | Forced degradation Δ Purity ([4]; 7 Days at +50°C): -2.94%; improvement in half-life in FaSSIF (stability to proteolytic degradation) relative to OG253 [5]: > 50 fold |
| C=C1NC(=O)[C@H](Cc2c[nH]c3ccccc23)NC(=O)[C@H](NC(=O)[C@H](CCCCN)NC(=O)[C@@H](N)[C@@H](C)CC)CSC[C@@H](C(=O)N[C@H]2C(=O)N3CCC[C@H]3C(=O)NCC(=O)N[C@H](C(=O)N[C@@H](C)C(=O)N[C@@H](CC(N)=O)C(=O)N/C(=C\C)C(=O)NCC(=O)N[C@@H]3CSC[C@@H]4NC(=O)[C@H](Cc5ccccc5)NC(=O)[C@@H](CS/C=C\NC4=O)NC(=O)[C@H](CC(N)=O)NC(=O)[C@H](Cc4ccccc4)NC3=O)CS[C@H]2C)NC(=O)[C@H](CC(C)C)NC1=O [OG718] | 0.5 µg/mL (≈ 0.23 µM) | 1 µg/mL (≈ 0.46 µM) | 0.5 µg/mL (≈ 0.23 µM) | 0.25 to 1 µg/mL | 0.25 µg/mL | 0.5 µg/mL | 0.5 µg/mL | 0.5 µg/mL | 0.5 µg/mL | 0.25 µg/mL | 0.5 µg/mL | 1 µg/mL | > 24000 µg/mL | -9.1% and -9% | -2.07% | -29.4% and -29% | -4.90% | -21% | -7.42% | -43.8% and -44% | Forced degradation Δ Purity ([4]; 7 Days at +50°C): -12.84% |
| CN[C@H](CC(C)C)C(=O)N[C@H]1C(=O)N[C@@H](CC(N)=O)C(=O)N[C@H]2C(=O)N[C@H]3C(=O)N[C@H](C(=O)N[C@H](C(=O)O)c4cc(O)cc(O)c4-c4cc3ccc4O)[C@H](O)c3ccc(c(Cl)c3)Oc3cc2cc(c3O[C@@H]2O[C@H](CO)[C@@H](O)[C@H](O)[C@H]2O[C@H]2C[C@](C)(N)[C@H](O)[C@H](C)O2)Oc2ccc(cc2Cl)[C@H]1O [Vancomycin, reference compound] |  |  |  |  |  |  |  |  |  |  |  |  |  |  |  |  |  |  |  |  | Minimum Inhibitory Concentration C. difficile Range ([1]; 8 C. difficile strains): 0.5 to 4 mg/mL; MIC 50 ([1]; Clostridioides difficile): 0.5 µg/mL (≈ 0.345 µM); MIC 90 ([1]; Clostridioides difficile): 4 µg/mL (≈ 2.76 µM); MIC Range ([1]; panel of C. difficile strains, n = 8): 0.5 to 4 µg/mL; survival ([6]; 20 mg/kg oral gavage x 5 days (test compounds TID, vancomycin QD), outcome of the study (Day 21)): 83%; C. difficile spore count of cecal samples ([6]; 20 mg/kg oral gavage x 5 days, cecal contents at death or Day 21): 2.96 log10 CFU/mL; spore counts compared to control (vehicle-treated) animals ([6]; cecal contents at death or Day 21): significantly lower |
| CCc1c(Cl)c(O)c(Cl)c(O)c1C(=O)O[C@H]1[C@H](O)[C@H](OC)[C@H](OC/C2=C\C=C\C[C@H](O)/C(C)=C/[C@H](CC)[C@@H](O[C@@H]3OC(C)(C)[C@@H](OC(=O)C(C)C)[C@H](O)[C@@H]3O)/C(C)=C/C(C)=C/C[C@@H]([C@@H](C)O)OC2=O)O[C@@H]1C [fidaxomycin] |  |  |  |  |  |  |  |  |  |  |  |  |  |  |  |  |  |  |  |  | solubility in water [7]: 12.5 µg/mL (≈ 11.8 µM) |
| gallidermin (IASKFLCTPGCAKTGSFNSYCC; also: lantibiotic (lanthionine rings and dehydro residues not given here); UniProt P21838 31-52, looked up) [lantibiotic / cationic antimicrobial peptide] |  |  |  |  |  |  |  |  |  |  |  |  |  |  |  |  |  |  |  |  | MIC increase of C. difficile ([8]; cpr induction in vitro): 2–4 fold; MIC of C. difficile ([8]; level reached after MIC increase (cpr induction)): ~ 1 μg/ml |

From publication PMC5997364, “OG716: Designing a fit-for-purpose lantibiotic for the treatment of Clostridium difficile infections” (PLoS ONE, 2018)
